# Results from the supplement of paper PMC8882468.
# Tested on: HCI-019 (organoid from a triple-negative breast cancer xenograft)
# Test: CTG-3D luminescence at 96 h relative to day-0 seeding control (ratio to day 0); higher = more growth / less cytotoxicity; PDxO 3D drug screen (set 2), 96 h, CTG-3D normalised to day-0 seeding control.
# Conditions: 10 µM; days in culture: 173
row,Compound,CTG-3D luminescence at 96 h
1,Cc1c(CN2CCN(C(=O)[C@H](C)O)CC2)sc2c(N3CCOCC3)nc(-c3cnc(N)nc3)nc12 [apitolisib],0.36
2,CS(=O)(=O)CCNCc1ccc(-c2ccc3ncnc(Nc4ccc(OCc5cccc(F)c5)c(Cl)c4)c3c2)o1 [lapatinib],0.415
3,CCOc1ccn(-c2ccc(F)cc2)c(=O)c1C(=O)Nc1ccc(Oc2ccnc(N)c2Cl)c(F)c1 [ASLAN002],1.16
4,Nc1cc(C(F)(F)F)c(-c2cc(N3CCOCC3)nc(N3CCOCC3)n2)cn1 [buparlisib],0.425

# Same assay, conditions: 10 µM; days in culture: 194
row,Compound,CTG-3D luminescence at 96 h
1,CC(C)n1nc(-c2ccc3oc(N)nc3c2)c2c(N)ncnc21 [sapanisertib],0.49
2,C[C@@H](Nc1cc(F)cc(F)c1)c1cc(C(=O)N(C)C)cc2c(=O)cc(N3CCOCC3)oc12 [AZD-8186],1.3
3,CC(=O)c1c(C)c2cnc(Nc3ccc(N4CCNCC4)cn3)nc2n(C2CCCC2)c1=O [palbociclib],1.97
4,Cc1c(CN2CCN(C(=O)[C@H](C)O)CC2)sc2c(N3CCOCC3)nc(-c3cnc(N)nc3)nc12 [apitolisib],0.462
5,CS(=O)(=O)CCNCc1ccc(-c2ccc3ncnc(Nc4ccc(OCc5cccc(F)c5)c(Cl)c4)c3c2)o1 [lapatinib],0.531
6,CCOc1ccn(-c2ccc(F)cc2)c(=O)c1C(=O)Nc1ccc(Oc2ccnc(N)c2Cl)c(F)c1 [ASLAN002],0.875
7,Nc1cc(C(F)(F)F)c(-c2cc(N3CCOCC3)nc(N3CCOCC3)n2)cn1 [buparlisib],0.454

# Same assay, conditions: 10 µM; days in culture: 215
row,Compound,CTG-3D luminescence at 96 h
1,CC(C)n1nc(-c2ccc3oc(N)nc3c2)c2c(N)ncnc21 [sapanisertib],0.192
2,C[C@@H](Nc1cc(F)cc(F)c1)c1cc(C(=O)N(C)C)cc2c(=O)cc(N3CCOCC3)oc12 [AZD-8186],1.39
3,CC(=O)c1c(C)c2cnc(Nc3ccc(N4CCNCC4)cn3)nc2n(C2CCCC2)c1=O [palbociclib],1.35
4,Cc1c(CN2CCN(C(=O)[C@H](C)O)CC2)sc2c(N3CCOCC3)nc(-c3cnc(N)nc3)nc12 [apitolisib],0.15
5,CS(=O)(=O)CCNCc1ccc(-c2ccc3ncnc(Nc4ccc(OCc5cccc(F)c5)c(Cl)c4)c3c2)o1 [lapatinib],0.323
6,CCOc1ccn(-c2ccc(F)cc2)c(=O)c1C(=O)Nc1ccc(Oc2ccnc(N)c2Cl)c(F)c1 [ASLAN002],0.724
7,Nc1cc(C(F)(F)F)c(-c2cc(N3CCOCC3)nc(N3CCOCC3)n2)cn1 [buparlisib],0.382

# Same assay, conditions: 100 µM; days in culture: 173
row,Compound,CTG-3D luminescence at 96 h
1,CC(C)n1nc(-c2ccc3oc(N)nc3c2)c2c(N)ncnc21 [sapanisertib],0.0514
2,C[C@@H](Nc1cc(F)cc(F)c1)c1cc(C(=O)N(C)C)cc2c(=O)cc(N3CCOCC3)oc12 [AZD-8186],0.37
3,CC(=O)c1c(C)c2cnc(Nc3ccc(N4CCNCC4)cn3)nc2n(C2CCCC2)c1=O [palbociclib],1.9
4,Cc1c(CN2CCN(C(=O)[C@H](C)O)CC2)sc2c(N3CCOCC3)nc(-c3cnc(N)nc3)nc12 [apitolisib],0.336
5,CS(=O)(=O)CCNCc1ccc(-c2ccc3ncnc(Nc4ccc(OCc5cccc(F)c5)c(Cl)c4)c3c2)o1 [lapatinib],0.078
6,CCOc1ccn(-c2ccc(F)cc2)c(=O)c1C(=O)Nc1ccc(Oc2ccnc(N)c2Cl)c(F)c1 [ASLAN002],1.12
7,Nc1cc(C(F)(F)F)c(-c2cc(N3CCOCC3)nc(N3CCOCC3)n2)cn1 [buparlisib],0.353

# Same assay, conditions: 100 µM; days in culture: 194
row,Compound,CTG-3D luminescence at 96 h
1,CC(C)n1nc(-c2ccc3oc(N)nc3c2)c2c(N)ncnc21 [sapanisertib],0.0673
2,C[C@@H](Nc1cc(F)cc(F)c1)c1cc(C(=O)N(C)C)cc2c(=O)cc(N3CCOCC3)oc12 [AZD-8186],0.367
3,CC(=O)c1c(C)c2cnc(Nc3ccc(N4CCNCC4)cn3)nc2n(C2CCCC2)c1=O [palbociclib],1.02
4,Cc1c(CN2CCN(C(=O)[C@H](C)O)CC2)sc2c(N3CCOCC3)nc(-c3cnc(N)nc3)nc12 [apitolisib],0.305
5,CS(=O)(=O)CCNCc1ccc(-c2ccc3ncnc(Nc4ccc(OCc5cccc(F)c5)c(Cl)c4)c3c2)o1 [lapatinib],0.0607
6,CCOc1ccn(-c2ccc(F)cc2)c(=O)c1C(=O)Nc1ccc(Oc2ccnc(N)c2Cl)c(F)c1 [ASLAN002],1.1
7,Nc1cc(C(F)(F)F)c(-c2cc(N3CCOCC3)nc(N3CCOCC3)n2)cn1 [buparlisib],0.358

# Same assay, conditions: 100 µM; days in culture: 215
row,Compound,CTG-3D luminescence at 96 h
1,CC(C)n1nc(-c2ccc3oc(N)nc3c2)c2c(N)ncnc21 [sapanisertib],0.0431
2,C[C@@H](Nc1cc(F)cc(F)c1)c1cc(C(=O)N(C)C)cc2c(=O)cc(N3CCOCC3)oc12 [AZD-8186],0.374
3,CC(=O)c1c(C)c2cnc(Nc3ccc(N4CCNCC4)cn3)nc2n(C2CCCC2)c1=O [palbociclib],1.38
4,Cc1c(CN2CCN(C(=O)[C@H](C)O)CC2)sc2c(N3CCOCC3)nc(-c3cnc(N)nc3)nc12 [apitolisib],0.168
5,CS(=O)(=O)CCNCc1ccc(-c2ccc3ncnc(Nc4ccc(OCc5cccc(F)c5)c(Cl)c4)c3c2)o1 [lapatinib],0.00321
6,CCOc1ccn(-c2ccc(F)cc2)c(=O)c1C(=O)Nc1ccc(Oc2ccnc(N)c2Cl)c(F)c1 [ASLAN002],0.591
7,Nc1cc(C(F)(F)F)c(-c2cc(N3CCOCC3)nc(N3CCOCC3)n2)cn1 [buparlisib],0.188

# Same assay, conditions: 625 fM; days in culture: 173
row,Compound,CTG-3D luminescence at 96 h
1,CC(C)n1nc(-c2ccc3oc(N)nc3c2)c2c(N)ncnc21 [sapanisertib],1.71
2,C[C@@H](Nc1cc(F)cc(F)c1)c1cc(C(=O)N(C)C)cc2c(=O)cc(N3CCOCC3)oc12 [AZD-8186],1.05
3,CC(=O)c1c(C)c2cnc(Nc3ccc(N4CCNCC4)cn3)nc2n(C2CCCC2)c1=O [palbociclib],2.01
4,Cc1c(CN2CCN(C(=O)[C@H](C)O)CC2)sc2c(N3CCOCC3)nc(-c3cnc(N)nc3)nc12 [apitolisib],1.93
5,CS(=O)(=O)CCNCc1ccc(-c2ccc3ncnc(Nc4ccc(OCc5cccc(F)c5)c(Cl)c4)c3c2)o1 [lapatinib],1.93
6,CCOc1ccn(-c2ccc(F)cc2)c(=O)c1C(=O)Nc1ccc(Oc2ccnc(N)c2Cl)c(F)c1 [ASLAN002],1.28
7,Nc1cc(C(F)(F)F)c(-c2cc(N3CCOCC3)nc(N3CCOCC3)n2)cn1 [buparlisib],1.61

# Same assay, conditions: 625 fM; days in culture: 194
row,Compound,CTG-3D luminescence at 96 h
1,CC(C)n1nc(-c2ccc3oc(N)nc3c2)c2c(N)ncnc21 [sapanisertib],3.01
2,C[C@@H](Nc1cc(F)cc(F)c1)c1cc(C(=O)N(C)C)cc2c(=O)cc(N3CCOCC3)oc12 [AZD-8186],1.03
3,CC(=O)c1c(C)c2cnc(Nc3ccc(N4CCNCC4)cn3)nc2n(C2CCCC2)c1=O [palbociclib],1.43
4,Cc1c(CN2CCN(C(=O)[C@H](C)O)CC2)sc2c(N3CCOCC3)nc(-c3cnc(N)nc3)nc12 [apitolisib],1.85
5,CS(=O)(=O)CCNCc1ccc(-c2ccc3ncnc(Nc4ccc(OCc5cccc(F)c5)c(Cl)c4)c3c2)o1 [lapatinib],2.78
6,CCOc1ccn(-c2ccc(F)cc2)c(=O)c1C(=O)Nc1ccc(Oc2ccnc(N)c2Cl)c(F)c1 [ASLAN002],1.75
7,Nc1cc(C(F)(F)F)c(-c2cc(N3CCOCC3)nc(N3CCOCC3)n2)cn1 [buparlisib],3.95

# Same assay, conditions: 625 fM; days in culture: 215
row,Compound,CTG-3D luminescence at 96 h
1,CC(C)n1nc(-c2ccc3oc(N)nc3c2)c2c(N)ncnc21 [sapanisertib],1.84
2,C[C@@H](Nc1cc(F)cc(F)c1)c1cc(C(=O)N(C)C)cc2c(=O)cc(N3CCOCC3)oc12 [AZD-8186],1.8
